In ChEMBL document CHEMBL1139852, “A distinctive structural twist in the aminoimidazole alkaloids from a calcareous marine sponge: isolation and characterization of leucosolenamines A and B” (J Nat Prod, 2007):

How the values were obtained:
Format in all cases: cell-based
[1] = Selective cytotoxicity for mouse C38 cells over CFU-GM cells at 180 ug/disk; conditions: mc-38
[2] = test system: MC-38; test: Cytotoxicity against mouse C38 cells at 180 ug/disk
[3] = Cytotoxicity against mouse CFU-GM cells at 180 ug/disk
[4] = test system: MC-38; test: Cytotoxicity against mouse C38 cells at 7.8 ug/disk
[5] = Selective cytotoxicity for mouse C38 cells over CFU-GM cells at 7.8 ug/disk; conditions: mc-38
[6] = Cytotoxicity against mouse CFU-GM cells at 7.8 ug/disk

Structure (SMILES)	inhibition zone (IZ) [1]	Activity [2]	Activity [3]	inhibition zone (IZ) [2]	inhibition zone (IZ) [3]	inhibition zone (IZ) [4]	inhibition zone (IZ) [5]	inhibition zone (IZ) [6]
Cc1cn([C@H]2C[C@H](O)[C@@H](CO)O2)c(=O)[nH]c1=O [DOXRIBTIMINE]	0 mm	Not Active	Not Active	–	–	–	–	–
Cn1c(/N=C2\NC(=N)N=C2Cc2ccc3c(c2)OCO3)c(N)c(=O)n(C)c1=O [LEUCOSOLENAMINE A]	10.5 mm	–	–	10.5 mm	0 mm	–	–	–
CO[C@@H](C(=O)N[C@H]1CCCCNC1=O)[C@H](O)[C@@H](O)[C@H](O)/C=C/C(C)C [BENGAMIDE E]	–	–	–	–	–	21 mm	4.5 mm	16.5 mm
